From US10646488B2 (Araxes Pharma LLC, priority 2016, dated 2020)

Target: T1, KRAS G12C 1-169, his-tagged protein, GDP-loaded (Homo sapiens, UniProt P01116, G12C)
T1 construct: KRAS G12C 1-169, his-tagged protein, GDP-loaded
Experiment: Covalent binding (% modification) to KRAS G12C by mass spectrometry; note: test concentration or dose not given here

[1] = covalent binding to KRAS G12C after a ten minute incubation period
[2] = covalent binding to KRAS G12C after a three minute incubation period

SMILES	Binding % [1]	Binding % [2]
C=CC(=O)N1CCN(c2nc(N)nc3c(F)c(-c4c(C)ccc5[nH]ncc45)c(Cl)cc23)[C@@H](C)C1 [Compound 10, 1-((3S)-4-(2-amino-6-chloro-8-fluoro-7-(5-methyl-1H-indazol-4-yl)quinazolin-4-yl)-3-methyl-piperazin-1-yl) prop-2-en-1-one]	+++ (+++ indicates binding activity greater than 90%)	–
[2H]C([2H])([2H])N(C1CN(c2nc(N3C[C@@H](C)N(C(=O)C=C)C[C@@H]3C)c3cc(Cl)c(-c4c(O)cccc4F)c(F)c3n2)C1)C([2H])([2H])[2H] (atropisomer, axis not shown) [Compound 212, 1-((2R,5S)-4-(2-(3-(bis(triduetero-methyl)amino)azetidin-1-yl)-6-chloro-8-fluoro-7-((R)-2-fluoro-6-hydroxyphenyl)quinazolin-4-yl)-2,5-dimethyl-piperazin-1-yl) prop-2-en-1-one]	–	+ (+ indicates binding activity greater than 0% and up to 50%)
C=CC(=O)N1CCN(c2nc(N3CC(N(C)C)C3)nc3c(F)c(-c4c(O)cccc4F)c(Cl)cc23)[C@@H](C)C1 (atropisomer, axis not shown) [Compound 59, 1-((S)-4-((R)-6-chloro-2-(3-(dimethylamino)azetidin-1-yl)-8-fluoro-7-(2-fluoro-6-hydroxyphenyl)quinazolin-4-yl)-3-methyl-piperazin-1-yl) prop-2-en-1-one]	+ (+ indicates binding activity up to 50%)	–
C=CC(=O)N1C[C@H](C)N(c2nc(COCc3ncccc3F)nc3c(F)c(-c4c(C)ccc5[nH]ncc45)c(Cl)cc23)C[C@H]1C [Compound 142, 1-((2R,5S)-4-(6-chloro-8-fluoro-2-(((3-fluoro-pyridin-2-yl)methoxy)methyl)-7-(5-methyl-1H-indazol-4-yl)quinazolin-4-yl)-2,5-dimethyl-piperazin-1-yl) prop-2-en-1-one]	–	++ (++ indicates binding activity from 50 to 90%)
C=CC(=O)N1C[C@H](C)N(c2nc(N3CC(N(C)C)C3)nc3c(F)c(-c4c(O)cccc4F)c(Cl)cc23)C[C@@H]1C [Compound 94, 1-((2S,5S)-4-(6-chloro-2-(3-(dimethylamino)azetidin-1-yl)-8-fluoro-7-(2-fluoro-6-hydroxyphenyl)quinazolin-4-yl)-2,5-dimethyl-piperazin-1-yl) prop-2-en-1-one]	–	+ (+ indicates binding activity greater than 0% and up to 50%)
C=CC(=O)N1C[C@H](C)N(c2nc(Oc3cn[nH]c3)nc3c(F)c(-c4c(O)cccc4F)c(Cl)cc23)C[C@H]1C [Compound 222, 1-((2R,5S)-4-(2-(1H-pyrazol-4-yloxy)-6-chloro-8-fluoro-7-(2-fluoro-6-hydroxy-phenyl)quinazolin-4-yl)-2,5-dimethyl-piperazin-1-yl) prop-2-en-1-one]	–	++ (++ indicates binding activity from 50 to 90%)
C=CC(=O)N1C[C@@H](C)N(c2nc(N)nc3c(F)c(-c4cc(O)cc5ccccc45)c(Cl)cc23)[C@@H](C)C1 [Compound 18, 1-((3S,5R)-4-(2-amino-6-chloro-8-fluoro-7-(3-hydroxynaphthalen-1-yl)quinazolin-4-yl)-3,5-dimethyl-piperazin-1-yl) prop-2-en-1-one]	++ (++ indicates binding activity from 50 to 90%)	–
C=CC(=O)N1C[C@@H](C)N(c2nc(OCCN(CC)CC)nc3c(F)c(-c4c(O)cccc4F)c(Cl)cc23)[C@@H](C)C1 [Compound 16, 1-((3S,5R)-4-(6-chloro-2-(2-(diethylamino)ethoxy)-8-fluoro-7-(2-fluoro-6-hydroxyphenyl)quinazolin-4-yl)-3,5-dimethylpiperazin-1-yl)prop-2-en-1-one]	++ (++ indicates binding activity from 50 to 90%)	–
C=CC(=O)N1CCN(c2nc(N3CC(N(C)C)C3)nc3c(F)c(-c4c(O)cccc4F)c(Cl)cc23)C[C@H]1C [Compound 56, 1-((2R)-4-(6-chloro-2-(3-(dimethylamino)azetidin-1-yl)-8-fluoro-7-(2-fluoro-6-hydroxyphenyl)quinazolin-4-yl)-2-methylpiperazin-1-yl)prop-2-en-1-one]	+++ (+++ indicates binding activity greater than 90%)	–
C=CC(=O)N1C[C@H](C)N(c2nc(OCCN3CC(F)(F)C3)nc3c(F)c(-c4c(C)ccc5cn[nH]c45)c(Cl)cc23)C[C@H]1C [Compound 112, 1-((2R,5S)-4-(6-chloro-2-(2-(3,3-difluoroazetidin-1-yl)ethoxy)-8-fluoro-7-(6-methyl-1H-indazol-7-yl)quinazolin-4-yl)-2,5-dimethyl-piperazin-1-yl) prop-2-en-1-one]	–	++ (++ indicates binding activity from 50 to 90%)
[2H]C([2H])([2H])N(C1CN(c2nc(N3C[C@@H](C)N(C(=O)C=C)C[C@@H]3C)c3cc(Cl)c(-c4c(O)cccc4F)c(F)c3n2)C1)C([2H])([2H])[2H] [Compound 196, 1-((2R,5S)-4-(2-(3-(bis (trideuteromethyl)amino)azetidin-1-yl)-6-chloro-8-fluoro-7-(2-fluoro-6-hydroxyphenyl)quinazolin-4-yl)-2,5-dimethyl-piperazin-1-yl) prop-2-en-1-one]	–	+++ (+++ indicates binding activity greater than 90%)
[2H]C([2H])([2H])N(C1CN(c2nc(N3C[C@@H](C)N(C(=O)C=C)C[C@@H]3C)c3cc(Cl)c(-c4cc(O)cc5ccccc45)c(F)c3n2)C1)C([2H])([2H])[2H] (atropisomer, axis not shown) [Compound 229]	–	+ (+ indicates binding activity greater than 0% and up to 50%)
C=CC(=O)N1C[C@H](C)N(c2nc(NC3CCN(C4CC4)CC3)nc3c(F)c(-c4c(C)ccc5cn[nH]c45)c(Cl)cc23)C[C@H]1C [Compound 145, 1-((2R,5S)-4-(6-chloro-2-((1-cyclopropyl-piperidin-4-yl)amino)-8-fluoro-7-(6-methyl-1H-indazol-7-yl)quinazolin-4-yl)-2,5-dimethyl-piperazin-1-yl) prop-2-en-1-one]	–	++ (++ indicates binding activity from 50 to 90%)
C=CC(=O)N1C[C@H](C)N(c2nc(N3CC(C)(N(C)C)C3)nc3c(F)c(-c4c(C)ccc5cn[nH]c45)c(Cl)cc23)C[C@H]1C [Compound 124, 1-((2R,5S)-4-(6-chloro-2-(3-(dimethylamino)-3-methylazetidin-1-yl)-8-fluoro-7-(6-methyl-1H-indazol-7-yl)quinazolin-4-yl)-2,5-dimethyl-piperazin-1-yl) prop-2-en-1-one]	–	++ (++ indicates binding activity from 50 to 90%)
C=CC(=O)N1C[C@H](C)N(c2nc(NC3CCN(C4CC4)CC3)nc3c(F)c(-c4c(C)ccc5[nH]ncc45)c(Cl)cc23)C[C@H]1C [Compound 50, 1-((2R,5S)-4-(6-chloro-2-((1-cyclopropyl-piperidin-4-yl)amino)-8-fluoro-7-(5-methyl-1H-indazol-4-yl)quinazolin-4-yl)-2,5-dimethyl-piperazin-1-yl) prop-2-en-1-one]	++ (++ indicates binding activity from 50 to 90%)	–
C=CC(=O)N1C[C@H](C)N(c2nc(N3CC(NC)C3)nc3c(F)c(-c4c(C)ccc5cn[nH]c45)c(Cl)cc23)C[C@H]1C [Compound 100, 1-((2R,5S)-4-(6-chloro-8-fluoro-7-(6-methyl-1H-indazol-7-yl)-2-(3-(methylamino)azetidin-1-yl)quinazolin-4-yl)-2,5-dimethyl-piperazin-1-yl) prop-2-en-1-one]	–	++ (++ indicates binding activity from 50 to 90%)
C=CC(=O)N1C[C@H](C)N(c2nc(N3CC4(CCN(C5CC5)C4)C3)nc3c(F)c(-c4c(C)ccc5[nH]ncc45)c(Cl)cc23)C[C@H]1C [Compound 140, 1-((2R,5S)-4-(6-chloro-2-(6-cyclopropyl-2,6-diazaspiro[3.4]octan-2-yl)-8-fluoro-7-(5-methyl-1H-indazol-4-yl)quinazolin-4-yl)-2,5-dimethyl-piperazin-1-yl) prop-2-en-1-one]	–	++ (++ indicates binding activity from 50 to 90%)
C=CC(=O)N1C[C@H](C)N(c2nc(OCCN3CC(F)(F)C3)nc3c(F)c(-c4c(O)cccc4F)c(Cl)cc23)C[C@H]1C (atropisomer, axis not shown) [Compound 89, 1-((2R,5S)-4-(6-chloro-2-(2-(3,3-difluoroazetidin-1-yl)ethoxy)-8-fluoro-7-((R)-2-fluoro-6-hydroxyphenyl)quinazolin-4-yl)-2,5-dimethyl-piperazin-1-yl) prop-2-en-1-one]	–	+ (+ indicates binding activity greater than 0% and up to 50%)
C=CC(=O)N1C[C@H](C)N(c2nc(Oc3cn[nH]c3)nc3c(F)c(-c4c(C)ccc5[nH]ncc45)c(Cl)cc23)C[C@H]1C [Compound 223, 1-((2R,5S)-4-(2-(1H-pyrazol-4-yloxy)-6-chloro-8-fluoro-7-(5-methyl-1H-indazol-4-yl)quinazolin-4-yl)-2,5-dimethyl-piperazin-1-yl) prop-2-en-1-one]	–	++ (++ indicates binding activity from 50 to 90%)
C=CC(=O)N1C[C@H](C)N(c2nc(N3CC(N(C)C)C3)nc3c(F)c(-c4cc(O)cc5ccccc45)c(Cl)cc23)C[C@H]1C (atropisomer, axis not shown) [Compound 219, 1-((2R,5S)-4-(6-chloro-2-(3-(dimethylamino)azetidin-1-yl)-8-fluoro-7-((S)-3-hydroxynaphthalen-1-yl)quinazolin-4-yl)-2,5-dimethyl-piperazin-1-yl) prop-2-en-1-one]	–	+++ (+++ indicates binding activity greater than 90%)
C=CC(=O)N1C[C@H](C)N(c2nc(N3CC(N(C)CC)C3)nc3c(F)c(-c4c(C)ccc5[nH]ncc45)c(Cl)cc23)C[C@H]1C [Compound 119, 1-((2R,5S)-4-(6-chloro-2-(3-(ethyl(methyl)amino)azetidin-1-yl)-8-fluoro-7-(5-methyl-1H-indazol-4-yl)quinazolin-4-yl)-2,5-dimethyl-piperazin-1-yl) prop-2-en-1-one]	–	+ (+ indicates binding activity greater than 0% and up to 50%)
